One data set has as its system EEEV BeAr 436087. The data set is described as follows: microbe, parasite or virus in culture. To be noted: Eastern equine encephalitis virus, Vero 76, 48 h, read-out: EEEV BeAr 436087 EC50 nM. It is filed as cell-based.
In data set [1] the test system is EEEV FL93-939. Also on record: species or system C57BL/6 mice. To be noted: mouse, in vivo.
In the next data set the test system is WEEV California. Kind of data set: microbe, parasite or virus in culture. Type of data set: cell-based. To be noted: Western equine encephalitis virus, Vero 76, 48 h, read-out: WEEV California EC50 nM.
The subject of data set [2] is EEEV FL93-939. The data set is described as follows: microbe, parasite or virus in culture. To be noted: Eastern equine encephalitis virus, Vero 76, 48 h, read-out: EEEV FL93-939 EC50. Type of data set: cell-based.
Another data set concerns VEEV TrD. On the set-up: species or system BALB/C mice. To be noted: mouse, in vivo.
The next data set concerns VEEV TC83. The data set is described as follows: microbe, parasite or virus in culture. Type of data set: cell-based. To be noted: Venezuelan equine encephalitis virus, Vero 76, 48 h, read-out: VEEV TC83 EC50 nM.

5 compounds from US20220348558A1, “INHIBITORS OF ENCEPHALITIC ALPHAVIRUSES” (priority 2019, published 2022) can be followed below.

Like-named read-outs stand apart in the source and are kept apart here.

As for `COc1ccc(-n2c([C@H]3CCCN3)nc3c(C)cc([N+](=O)[O-])cc3c2=O)cc1` [Example 55, (R)-3-(4-methoxyphenyl)-8-methyl-6-nitro-2-(pyrrolidin-2-yl) quinazolin-4 (3H)-one], the EC50 was 51 to 150 nM in the data set on EEEV BeAr 436087, 1 to 50 nM in the data set with WEEV California, 51 to 150 nM in the data set with EEEV FL93-939 [2] and 1 to 50 nM in the data set with VEEV TC83. Besides, the “% survival on day 21” value in the data set on EEEV FL93-939 [1] (12 mg/kg/day) came out at 30%; in the data set with EEEV FL93-939 [1] (25 mg/kg/day), 60%; with EEEV FL93-939 [1] (50 mg/kg/day), 70%. Moreover, in the data set with VEEV TrD, the “day 14 % survival” value is 100%. In addition, the survival rate in the data set on VEEV TrD (12 mg/kg/day) was determined as 75%; in the data set with VEEV TrD (24 mg/kg/day), 75%; in the data set on VEEV TrD (48 mg/kg/day), 100%.
As to `COc1ccc(-n2c([C@@H]3CCCN3C)nc3c(C)cc([N+](=O)[O-])cc3c2=O)cc1` [Example 58, (S)-3-(4-methoxyphenyl)-8-methyl-2-(1-methylpyrrolidin-2-yl)-6-nitroquinazolin-4 (3H)-one], the EC50 fell in the range of 51 to 150 nM in the data set with EEEV BeAr 436087, 1 to 50 nM in the data set on WEEV California, 51 to 150 nM in the data set on EEEV FL93-939 [2] and 1 to 50 nM with VEEV TC83.
Regarding `COc1ccc(-n2c([C@H]3CCCN3)nc3c(C)cc([N+](=O)[O-])cc3c2=O)cc1F` [Example 59], the 50% effective concentration (EC50) in the data set on EEEV BeAr 436087 is 51 to 150 nM; in the data set with WEEV California, 1 to 50 nM; with EEEV FL93-939 [2], 51 to 150 nM; with VEEV TC83, 1 to 50 nM.
As to `COc1ccc(-n2c([C@H]3C[C@H](F)CN3)nc3c(-c4cccnc4)cc([N+](=O)[O-])cc3c2=O)cc1` [Example 86, 2-((2R,4S)-4-fluoropyrrolidin-2-yl)-3-(4-methoxyphenyl)-6-nitro-8-(pyridin-3-yl) quinazolin-4 (3H)-one], the EC50 with EEEV BeAr 436087 fell in the range of 51 to 150 nM; with WEEV California, 1 to 50 nM; with EEEV FL93-939 [2] it was 51 to 150 nM; in the data set with VEEV TC83, 1 to 50 nM.
Compound `COc1ccc(-n2c([C@H]3C[C@H](F)CN3)nc3c(C)cc([N+](=O)[O-])cc3c2=O)cc1` [Example 61, 2-((2R,4S)-4-fluoropyrrolidin-2-yl)-3-(4-methoxyphenyl)-8-methyl-6-nitroquinazolin-4 (3H)-one] returned a melting point of 183.06 to 185.34 °C. In the data set with EEEV BeAr 436087, the EC50 lay in the range of 51 to 150 nM. The EC50 in the data set on WEEV California was in the range of 51 to 150 nM. In addition, the EC50 in the data set with EEEV FL93-939 [2] lay within 51 to 150 nM. The EC50 in the data set with VEEV TC83 fell in the range of 1 to 50 nM.

For orientation: EC50 means the concentration needed to bring the measured effect to its halfway point. Broadly, the melting point is the temperature, or range, at which the solid turns liquid.
